In ChEMBL document CHEMBL1201862, “PubChem BioAssay data set” (2004) one finds IC50 and AC50 data, which are given here for 1 compound.

For one assay, the target named is Protein Wnt-3a (Mus musculus, UniProt P27467). The experiment in a line: antagonism of Wnt3a pathway luciferase reporter – Wnt-LIGHT cells, luminescence, selectivity assay for Gli-SUFU antagonist project, dose response (AID 651570).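 Also: Wnt-LIGHT reporter cells stimulated with conditioned medium from Wnt3a-producing cells.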 In kind it is functional. The conditions noted are these: read-out: IC50_Mean. In general terms: In a reporter assay the amount or activity of a reporter protein is the signal.
Sequence of Protein Wnt-3a (P27467 whole entry): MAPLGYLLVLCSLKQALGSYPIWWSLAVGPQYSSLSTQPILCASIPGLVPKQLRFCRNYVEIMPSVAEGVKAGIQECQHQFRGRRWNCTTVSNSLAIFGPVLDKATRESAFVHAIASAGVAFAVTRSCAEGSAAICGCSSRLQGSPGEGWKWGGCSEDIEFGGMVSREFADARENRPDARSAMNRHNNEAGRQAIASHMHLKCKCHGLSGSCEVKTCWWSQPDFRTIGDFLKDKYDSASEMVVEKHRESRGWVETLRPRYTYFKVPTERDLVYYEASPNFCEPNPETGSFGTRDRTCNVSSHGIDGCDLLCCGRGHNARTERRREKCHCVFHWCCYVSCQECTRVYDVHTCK

In a further assay the test system is INS1. The experiment in a line: INS-1E survival protection against cytokine death – cell-based, luminescence, retest, dose response (AID 449756).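 Also: cell death triggered by IL-1 beta plus TNF-alpha plus IFN-gamma mixture; protective hits raise ATP signal compared with cytokine alone wells.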 The conditions noted are these: Rattus norvegicus. The format is functional.

Calls of active or inactive are those of the source.

Turning to `O=C(Nc1ccc(C(F)(F)F)cc1)C1CCN(S(=O)(=O)c2ccc(N3CCCC3=O)cc2)CC1`, the IC50 at Protein Wnt-3a was 2.18 µM (active). Also, the AC50 (in general, the concentration giving half of the maximal activity seen) with INS1 was 3.1 µM (active).
